Assay results as given in patent publication US20230271950A1, “ANTIBACTERIAL PICOLINAMIDE COMPOUNDS” (University of Notre Dame Du Lac, priority 2020, published 2023).
Values after ≈ are worked out from the molar mass of the structure shown. Like-named read-outs stand apart in the source and are kept apart here.

Legend:
[1] = system: C. difficile; experiment: MIC by broth microdilution against C. difficile strains; format: cell-based, Clostridioides difficile; conditions: for MIC: Clostridioides difficile, ATCC43255, ATCC 43255, ribotype 087, read-out: MIC C. difficile; for Selectivity: MIC MRSA/MIC C. difficile, Table 3
[2] = system: MRSA (NRS70, NRS119); experiment: MIC against MRSA strains; format: cell-based, Staphylococcus aureus; conditions: NRS70 strain; for MIC: Staphylococcus aureus, read-out: MIC MRSA
[3] = system: S. aureus ATCC29213; experiment: MIC against MSSA; format: cell-based, Staphylococcus aureus; conditions: MSSA ATCC 29213; for MIC: Staphylococcus aureus, Table 10, unit inferred, read-out: Activity (MIC) against S. aureus
[4] = system: E. faecium NCTC7171; experiment: MIC against E. faecium; format: cell-based, Enterococcus faecium; conditions: E. faecium NCTC 7171; for MIC: Enterococcus faecium, NCTC7171, Table 10, unit inferred, read-out: Activity (MIC) against E. faecium
[5] = system: HeLa cells; experiment: XTT cytotoxicity assay with HeLa cells; format: cell-based; conditions: Homo sapiens, Table 6
Procedure: XTT assay. Cytotoxicity assays were performed in triplicate against HeLa cells (ATCC CCL-2). The IC50 values were calculated by nonlinear regression with GraphPad Prism 5 (San Diego, Calif.).
XTT assay. XTT assays were performed with HeLa cells (ATCC CCL-2) in triplicate, as previously described (Lancet 2008, 371, 1486). IC50 values were determined by nonlinear regression using GraphPad Prism 5 (San Diego, Calif.).

SMILES | MIC ([1]; Table 2 (SAR^1)) | MIC ([2]; Table 2 (SAR^1)) | MIC [3] | MIC [4] | MIC C. difficile ([1]; ATCC 43255, ribotype 087, Table 2 (SAR^1)) | MIC MRSA ([2]; Table 2 (SAR^1)) | Activity (MIC) against S. aureus ([3]; Table 10, unit not given) | Activity (MIC) against E. faecium ([4]; Table 10, unit not given) | MIC ([1]; Table 3 (SAR^2 and SAR^3)) | MIC ([2]; Table 3 (SAR^2 and SAR^3)) | Selectivity [1] | IC50 [5]
O=C(Nc1ncco1)c1ccnc(-c2ccc(F)c(F)c2)c1 [Compound 35, 2-(3,4-Difluorophenyl)-N-(oxazol-2-yl)isonicotinamide] | – | – | 4 µg/mL (≈ 13.3 µM) | 1 µg/mL (≈ 3.32 µM) | – | – | – | – | 1 µg/mL (≈ 3.32 µM) | 2 µg/mL (≈ 6.64 µM) | 2 | –
O=C(Nc1ncco1)c1ccnc(-c2ccc(F)cc2)c1 [Compound 36, 2-(4-Fluorophenyl)-N-(oxazol-2-yl)isonicotinamide] | – | – | 4 µg/mL (≈ 14.1 µM) | 8 µg/mL (≈ 28.2 µM) | – | – | – | – | 2 µg/mL (≈ 7.06 µM) | 4 µg/mL (≈ 14.1 µM) | 2 | –
O=C(Nc1ncco1)c1ccnc(-c2cc(F)cc(Cl)c2)c1 [Compound 43, 2-(3-Chloro-5-fluorophenyl)-N-(oxazol-2-yl)isonicotinamide] | – | – | 0.25 µg/mL (≈ 0.787 µM) | 0.5 µg/mL (≈ 1.57 µM) | – | – | – | – | 0.12 µg/mL (≈ 0.378 µM) | 0.0625 µg/mL (≈ 0.197 µM) | 0.5 | –
O=C(Nc1ncco1)c1ccnc(-c2ccc(C(F)(F)F)cc2)c1 [Compound 44, N-(Oxazol-2-yl)-2-(4-(trifluoromethyl)phenyl)isonicotinamide] | – | – | 0.25 µg/mL (≈ 0.75 µM) | 1 µg/mL (≈ 3 µM) | – | – | – | – | 0.25 µg/mL (≈ 0.75 µM) | 1 µg/mL (≈ 3 µM) | 4 | –
O=C(Nc1ncco1)c1ccnc(-c2cccc(C(F)(F)F)c2)c1 [Compound 45, N-(Oxazol-2-yl)-2-(3-(trifluoromethyl)phenyl)isonicotinamide] | – | – | 0.25 µg/mL (≈ 0.75 µM) | 1 µg/mL (≈ 3 µM) | – | – | – | – | 0.25 µg/mL (≈ 0.75 µM) | 0.25 µg/mL (≈ 0.75 µM) | 1 | –
O=C(Nc1ncco1)c1ccnc(-c2ccc(Br)cc2)c1 [Compound 48, 2-(4-Bromophenyl)-N-(oxazol-2-yl)isonicotinamide] | – | – | 0.5 µg/mL (≈ 1.45 µM) | 1 µg/mL (≈ 2.91 µM) | – | – | – | – | 0.5 µg/mL (≈ 1.45 µM) | 0.25 µg/mL (≈ 0.726 µM) | 0.5 | –
O=C(Nc1ncco1)c1cc(-c2ccc(F)c(Cl)c2)ccn1 [Compound 91, 4-(3-Chloro-4-fluorophenyl)-N-(oxazol-2-yl)picolinamide] | – | – | ≥ 128 µg/mL | ≥ 128 µg/mL | – | – | – | – | 0.25 µg/mL (≈ 0.787 µM) | 128 µg/mL (≈ 403 µM) | 512 | –
O=C(Nc1ncco1)c1ccnc(Oc2ccc(Cl)c(Cl)c2)c1 [Compound 99, 2-(3,4-Dichlorophenoxy)-N-(oxazol-2-yl)isonicotinamide] | – | – | 0.12 µg/mL (≈ 0.343 µM) | 0.5 µg/mL (≈ 1.43 µM) | – | – | – | – | – | – | – | 37 ± 1 µg/mL (≈ 106 µM)
O=C(Nc1ncco1)c1cc(Oc2ccc(F)c(F)c2)ccn1 [Compound 106, 4-(3,4-Difluorophenoxy)-N-(oxazol-2-yl)picolinamide] | – | – | 64 µg/mL (≈ 202 µM) | 128 µg/mL (≈ 403 µM) | – | – | – | – | – | – | – | 106 ± 2.1 µg/mL (≈ 334 µM)
O=C(Nc1ncco1)c1cc(Oc2ccc(OC(F)(F)F)cc2)ccn1 [Compound 109, N-(Oxazol-2-yl)-4-(4-(trifluoromethoxy)phenoxy)picolinamide] | – | – | ≥ 128 µg/mL | ≥ 128 µg/mL | – | – | – | – | – | – | – | 77.4 ± 2.3 µg/mL (≈ 212 µM)
O=C(Nc1ncco1)c1cc(Oc2ccc(SC(F)(F)F)cc2)ccn1 [Compound 110, N-(Oxazol-2-yl)-4-(4-((trifluoromethyl)thio)phenoxy)picolinamide] | – | – | ≥ 128 µg/mL | ≥ 128 µg/mL | – | – | – | – | – | – | – | 91.6 ± 1.3 µg/mL (≈ 240 µM)
O=C(O)c1ccc2nc(NC(=O)c3cc(-c4cccc(OC(F)(F)F)c4)ccn3)oc2c1 [Compound 119, 2-(4-(3-(Trifluoromethoxy)phenyl)picolinamido)benzo[d]oxazole-6-carboxylic acid] | – | – | – | – | – | – | – | – | – | – | – | 124 ± 3.3 µg/mL (≈ 279 µM)

Now from value to compound, other results behind:

MIC ([1]; Table 2 (SAR^1)) | MIC ([2]; Table 2 (SAR^1)) | MIC [3] | MIC [4] | MIC C. difficile ([1]; ATCC 43255, ribotype 087, Table 2 (SAR^1)) | MIC MRSA ([2]; Table 2 (SAR^1)) | Activity (MIC) against S. aureus ([3]; Table 10, unit not given) | Activity (MIC) against E. faecium ([4]; Table 10, unit not given) | MIC ([1]; Table 3 (SAR^2 and SAR^3)) | MIC ([2]; Table 3 (SAR^2 and SAR^3)) | SMILES | Selectivity [1] | IC50 [5]
1 µg/mL (≈ 2.6 µM) | 1 µg/mL (≈ 2.6 µM) | 16 µg/mL (≈ 41.6 µM) | 16 µg/mL (≈ 41.6 µM) | – | – | – | – | – | – | O=C(Nc1nc2ccccc2o1)c1ccnc(-c2ccc(Cl)c(Cl)c2)c1 [Compound 21, N-(benzo[d]oxazol-2-yl)-2-(3,4-dichlorophenyl)isonicotinamide] | – | –
– | – | – | – | 0.5 µg/mL (≈ 1.23 µM) | 4 µg/mL (≈ 9.87 µM) | 2 | 8 | – | – | CN(C)C(=O)c1cnc(NC(=O)c2ccnc(-c3ccc(Cl)c(Cl)c3)c2)o1 [Compound 28, (2-(3,4-Dichlorophenyl)isonicotinamido)-N,N-dimethyloxazole-5-carboxamide] | – | –
– | – | 1 µg/mL (≈ 3.34 µM) | 2 µg/mL (≈ 6.67 µM) | – | – | – | – | 0.5 µg/mL (≈ 1.67 µM) | 1 µg/mL (≈ 3.34 µM) | O=C(Nc1ncco1)c1ccnc(-c2ccc(Cl)cc2)c1 [Compound 32, 2-(4-Chlorophenyl)-N-(oxazol-2-yl)isonicotinamide] | 2 | –
– | – | 0.5 µg/mL (≈ 1.67 µM) | 1 µg/mL (≈ 3.34 µM) | – | – | – | – | 0.5 µg/mL (≈ 1.67 µM) | 0.25 µg/mL (≈ 0.834 µM) | O=C(Nc1ncco1)c1ccnc(-c2cccc(Cl)c2)c1 [Compound 33, 2-(3-Chlorophenyl)-N-(oxazol-2-yl)isonicotinamide] | 0.5 | –
– | – | 2 µg/mL (≈ 7.06 µM) | 4 µg/mL (≈ 14.1 µM) | – | – | – | – | 1 µg/mL (≈ 3.53 µM) | 2 µg/mL (≈ 7.06 µM) | O=C(Nc1ncco1)c1ccnc(-c2cccc(F)c2)c1 [Compound 37, 2-(3-Fluorophenyl)-N-(oxazol-2-yl)isonicotinamide] | 2 | –
– | – | 0.25 µg/mL (≈ 0.787 µM) | 0.5 µg/mL (≈ 1.57 µM) | – | – | – | – | 0.125 µg/mL (≈ 0.393 µM) | 0.0625 µg/mL (≈ 0.197 µM) | O=C(Nc1ncco1)c1ccnc(-c2ccc(Cl)c(F)c2)c1 [Compound 39, 2-(4-Chloro-3-fluorophenyl)-N-(oxazol-2-yl)isonicotinamide] | 0.5 | –
– | – | 0.5 µg/mL (≈ 1.57 µM) | 1 µg/mL (≈ 3.15 µM) | – | – | – | – | 0.25 µg/mL (≈ 0.787 µM) | 0.25 µg/mL (≈ 0.787 µM) | O=C(Nc1ncco1)c1ccnc(-c2ccc(F)c(Cl)c2)c1 [Compound 40, 2-(3-Chloro-4-fluorophenyl)-N-(oxazol-2-yl)isonicotinamide] | 1 | –
– | – | 0.06 µg/mL (≈ 0.18 µM) | 0.06 µg/mL (≈ 0.18 µM) | – | – | – | – | 0.0625 µg/mL (≈ 0.187 µM) | 0.0625 µg/mL (≈ 0.187 µM) | O=C(Nc1ncco1)c1ccnc(-c2cc(Cl)cc(Cl)c2)c1 [Compound 41, 2-(3,5-Dichlorophenyl)-N-(oxazol-2-yl)isonicotinamide] | 1 | –
– | – | 0.5 µg/mL (≈ 1.43 µM) | 2 µg/mL (≈ 5.73 µM) | – | – | – | – | 0.125 µg/mL (≈ 0.358 µM) | 1 µg/mL (≈ 2.86 µM) | O=C(Nc1ncco1)c1ccnc(-c2ccc(OC(F)(F)F)cc2)c1 [Compound 46, N-(Oxazol-2-yl)-2-(4-(trifluoromethoxy)phenyl)isonicotinamide] | 8 | –
– | – | 0.25 µg/mL (≈ 0.716 µM) | 1 µg/mL (≈ 2.86 µM) | – | – | – | – | 0.25 µg/mL (≈ 0.716 µM) | 0.0625 µg/mL (≈ 0.179 µM) | O=C(Nc1ncco1)c1ccnc(-c2cccc(OC(F)(F)F)c2)c1 [Compound 47, N-(Oxazol-2-yl)-2-(3-(trifluoromethoxy)phenyl)isonicotinamide] | 0.25 | –
– | – | 8 µg/mL (≈ 27.9 µM) | 8 µg/mL (≈ 27.9 µM) | – | – | – | – | 2 µg/mL (≈ 6.96 µM) | 4 µg/mL (≈ 13.9 µM) | O=C(Nc1ncco1)c1ccnc(OCC(F)(F)F)c1 [Compound 64, N-(Oxazol-2-yl)-2-(2,2,2-trifluoroethoxy)isonicotinamide] | 2 | –
– | – | 0.5 µg/mL (≈ 1.42 µM) | 1 µg/mL (≈ 2.84 µM) | – | – | – | – | 0.25 µg/mL (≈ 0.71 µM) | 2 µg/mL (≈ 5.68 µM) | O=C(Nc1ncco1)c1ccnc(-c2ccc(Cl)c(Cl)c2)c1F [Compound 66, 2-(3,4-Dichlorophenyl)-3-fluoro-N-(oxazol-2-yl)isonicotinamide] | 8 | –
– | – | 0.25 µg/mL (≈ 0.71 µM) | 0.5 µg/mL (≈ 1.42 µM) | – | – | – | – | 0.125 µg/mL (≈ 0.355 µM) | 0.0625 µg/mL (≈ 0.177 µM) | O=C(Nc1ncco1)c1cc(-c2ccc(Cl)c(Cl)c2)ncc1F [Compound 70, 2-(3,4-Dichlorophenyl)-5-fluoro-N-(oxazol-2-yl)isonicotinamide] | 0.5 | –
